Laboratory results as given in ChEMBL document CHEMBL3745616, “Identification of a potent inhibitor targeting human lactate dehydrogenase A and its metabolic modulation for cancer cell line” (Bioorg Med Chem Lett, 2016).
pIC50: −log10 of the molar value. The source made the active and inactive calls. No cut-off for these calls is given here.

Legend:
[1] = molecular target: L-lactate dehydrogenase A chain (Homo sapiens, UniProt P00338); experiment: Inhibition of human LDHA using pyruvate as substrate assessed as disappearance of NADH preincubated for 10 mins followed by substrate addition every 2.5 secs for 10 mins by fluorescence analysis
[2] = system: MCF7; experiment: Cytotoxicity against human MCF7 cells after 72 hrs by MTT assay; format: functional, cell-based; conditions: MCF7, 72 h
[3] = system: MCF7; experiment: Reduction in lactate production in human MCF7 cells at 5 uM after 12 hrs; format: functional, cell-based
[4] = system: MCF7; experiment: Reduction in lactate production in human MCF7 cells at 5 to 10 uM after 12 hrs; format: functional, cell-based
[5] = system: MCF7; experiment: Increase in oxygen consumption rate in human MCF7 cells at 2 to 10 uM after 12 hrs by extracellular flux analysis; format: functional, cell-based
[6] = system: MCF7; experiment: Decrease in extracellular acidfication rate in human MCF7 cells at 2 to 10 uM after 12 hrs by extracellular flux analysis; format: functional, cell-based
[7] = system: MCF7; experiment: Decrease in proton production rate in human MCF7 cells at 2 to 10 uM after 12 hrs by extracellular flux analysis; format: functional, cell-based
[8] = system: MCF7; experiment: Reduction in lactate production in human MCF7 cells at 10 uM after 12 hrs; format: functional, cell-based

| Structure (SMILES) | pIC50 [1] | pIC50 [2] | Activity [3] | Activity [4] | Activity [5] | inhibition [6] | inhibition [7] | Activity [8] |
| --- | --- | --- | --- | --- | --- | --- | --- | --- |
| Cc1nc(C)c(C(=O)OC[C@H]2CCCO2)c(-c2ccccc2C(F)(F)F)c1C(=O)O | 5.11 | 4.97 | – | – | – | – | – | – |
| Cn1c(=O)c2c(nc(NCc3ccccc3)n2C[C@@H](O)COc2ccc(Cl)cc2)n(C)c1=O | 5.64 | 5.46 | – | – | – | – | – | – |
| CCCC(=O)N(c1ccc2oc(C)c(C(=O)OCC)c2c1)S(=O)(=O)c1ccc(OC)cc1 | 5.46 | < 4.52 | – | – | – | – | – | – |

Further compounds by rising pIC50 [1], results first:

| pIC50 [1] | Structure (SMILES) | pIC50 [2] | Activity [3] | Activity [4] | Activity [5] | inhibition [6] | inhibition [7] | Activity [8] |
| --- | --- | --- | --- | --- | --- | --- | --- | --- |
| 5.32 | COc1ncc(-c2ccc3c(Nc4cccc(C(=O)O)c4)c(S(N)(=O)=O)cnc3c2)c(OC)n1 | < 4.52 | – | – | – | – | – | Active |
| 6.60 | Cc1ccccc1OC[C@H](O)Cn1c(NCc2ccccc2)nc2c1c(=O)n(C)c(=O)n2C | 5.81 | Active | Active | Active | Active | Active | – |
